According to the NIST ThermoML archive (doi:10.1016/j.jct.2015.10.002):
± gives the expanded uncertainty stated by the source.

Assay: mn = molality of the nth substance listed, in mol/kg
Details: 101.3 kPa, Liquid; for viscosity: Capillary tube (Ostwald / Ubbelohde) method; for mass density: Vibrating tube method

## OC[C@@H](O)[C@@H](O)[C@H](O)[C@@H](O)CO [D-sorbitol] + O
293.15 K, m1 = 0.2
  viscosity: 1.099 ± 0.045 mPa·s
  mass density: 1010.61 ± 1 kg/m3
293.15 K, m1 = 0.4
  viscosity: 1.203 ± 0.049 mPa·s
  mass density: 1022.43 ± 1 kg/m3
293.15 K, m1 = 0.6
  viscosity: 1.319 ± 0.054 mPa·s
  mass density: 1033.64 ± 1 kg/m3
293.15 K, m1 = 0.8
  viscosity: 1.453 ± 0.059 mPa·s
  mass density: 1044.32 ± 1 kg/m3
293.15 K, m1 = 1
  viscosity: 1.592 ± 0.065 mPa·s
  mass density: 1054.54 ± 1 kg/m3
303.15 K, m1 = 0.2
  viscosity: 0.87 ± 0.035 mPa·s
  mass density: 1007.87 ± 1 kg/m3
303.15 K, m1 = 0.4
  viscosity: 0.944 ± 0.038 mPa·s
  mass density: 1019.5 ± 1 kg/m3
303.15 K, m1 = 0.6
  viscosity: 1.034 ± 0.042 mPa·s
  mass density: 1030.53 ± 1 kg/m3
303.15 K, m1 = 0.8
  viscosity: 1.122 ± 0.046 mPa·s
  mass density: 1041.07 ± 1 kg/m3
303.15 K, m1 = 1
  viscosity: 1.233 ± 0.05 mPa·s
  mass density: 1051.08 ± 1 kg/m3
313.15 K, m1 = 0.2
  viscosity: 0.708 ± 0.029 mPa·s
  mass density: 1004.3 ± 1 kg/m3
313.15 K, m1 = 0.4
  viscosity: 0.766 ± 0.031 mPa·s
  mass density: 1015.77 ± 1 kg/m3
313.15 K, m1 = 0.6
  viscosity: 0.829 ± 0.034 mPa·s
  mass density: 1026.67 ± 1 kg/m3
313.15 K, m1 = 0.8
  viscosity: 0.903 ± 0.037 mPa·s
  mass density: 1037.06 ± 1 kg/m3
313.15 K, m1 = 1
  viscosity: 0.977 ± 0.04 mPa·s
  mass density: 1046.99 ± 1 kg/m3
323.15 K, m1 = 0.2
  viscosity: 0.588 ± 0.024 mPa·s
  mass density: 999.96 ± 1 kg/m3
323.15 K, m1 = 0.4
  viscosity: 0.634 ± 0.026 mPa·s
  mass density: 1011.33 ± 1 kg/m3
323.15 K, m1 = 0.6
  viscosity: 0.686 ± 0.028 mPa·s
  mass density: 1022.12 ± 1 kg/m3
323.15 K, m1 = 0.8
  viscosity: 0.738 ± 0.03 mPa·s
  mass density: 1032.4 ± 1 kg/m3
323.15 K, m1 = 1
  viscosity: 0.797 ± 0.032 mPa·s
  mass density: 1042.26 ± 1 kg/m3
